From article PMC9502271, “An Investigation of the Anti-Depressive Properties of Phenylpropanoids and Flavonoids in Hemerocallis citrina Baroni” (Molecules, 2022)
Where two headings read alike, the source gives them in different places.

Tests used:
[1] = tested on: NO production induced by LPS in BV2 cells; assay: Inhibition of NO production in LPS-induced BV2 microglial cells (Griess reagent); format: cell-based; settings: for IC50: compound test concentrations 3.125 to 100 μM, mean ± SD (n = 3), read-out: IC50 NO Inhibitory
Method: (§1) BV2 microglia cells were purchased from iCell Bioscience Inc. (Shanghai, China). The cells were grown at 37 °C in a humid environment with 5% CO2. In DMEM with 10% fetal bovine serum and 1% penicillin-streptomycin solution, they were maintained alive. The following assays were carried out while the cells were in the exponential growth phase (subcultured 2–3 times).
To determine how much NO is produced, the literature was consulted. Equal parts of the Griess reagent (1% sulfanilamide and 0.1% N-(1-naphthyl) ethylenediamine dihydrochloride in 2.5% phosphoric acid) were combined with the sample-treated cell culture medium for 5 min at room temperature and in the dark. It was determined that the absorbance was at 540 nm using a microplate reader. The trials were conducted simultaneously in triplicate.

[2] = tested on: BV2 microglial cells; assay: CCK8 cytotoxic activity in BV2 microglial cells; format: cell-based; settings: Mus musculus, BV-2, CCK8, LPS 1 μg/mL 24 h, compound test concentrations 3.125 to 100 μM, read-out: IC50 Cell Viability
Method: as §1
The cytotoxic activity was assessed using the CCK8 test. In a 96-well plate, BV2 microglial cells (5 × 10^4 cells/well) were placed in each well and incubated for 12 h. After one hour with each substance, LPS (1 μg/mL) was applied to the BV2 microglia cells for an additional 24 h. The CCK8 solution was then incubated with BV2 cells for 1 h at 37 °C. The absorbance at 450 nm was measured using a plate reader (Molecular Devices, San Jose, CA, USA). The cells that had not been treated were assumed to have a 100% optical density.

[3] = Mus musculus, BV-2, LPS-induced BV2 cells

| SMILES | IC50 [1, 3] [µM] | IC50 ([1]; LPS-induced BV2 cells) [µM] | inhibitory effects on NO production in comparison with the positive drug indomethacin ([1]; LPS-induced BV2 cells) | IC50 [2] [µM] |
| --- | --- | --- | --- | --- |
| O=c1c(O)c(-c2ccc(O)c(O)c2)oc2cc(O)cc(O)c12 [Compound 16, quercetin] |  |  | stronger inhibitory effects | > 100 |
| O=C(/C=C/c1ccc(O)c(O)c1)O[C@@H]1C[C@](O)(C(=O)O)C[C@@H](O)[C@H]1O [Compound 14, chlorogenic acid] | > 100 |  |  | > 100 |
| COc1ccc2c(c1)c(CC(=O)O)c(C)n2C(=O)c1ccc(Cl)cc1 [Indomethacin, indomethacin, reference compound] | 52.6 ± 4.58 |  |  | > 100 |
| C[C@@H]1O[C@@H](OC[C@H]2O[C@@H](Oc3c(-c4ccc(O)cc4)oc4cc(O)cc(O)c4c3=O)[C@H](O[C@@H]3O[C@@H](C)[C@H](O)[C@@H](O)[C@H]3O)[C@@H](O)[C@H]2O)[C@H](O)[C@H](O)[C@H]1O [Compound 36, kaempferol-3-O-[α-L-rhamnopyranosyl-(1→6)]-[α-L-rhamnopyranosyl-(1→2)]-β-D-galactopyranoside] | > 100 |  |  | > 100 |
| O=C(/C=C\c1ccc(O)cc1)O[C@H]1[C@@H](O)C[C@](O)(C(=O)O)C[C@@H]1O [Compound 10, 4-O-(Z)-p-coumaroylquinic acid] | > 100 |  |  | > 100 |
| O=C(/C=C/c1ccc(O)c(O)c1)O[C@H]1C[C@@](O)(C(=O)O)C[C@H](O)[C@@H]1O [Compound 12, neochlorogenic acid] | > 100 |  |  | > 100 |
| O=C(/C=C\c1ccc(O)cc1)O[C@H]1C[C@](O)(C(=O)O)C[C@H](O)[C@H]1O [Compound 4, 3-O-(Z)-p-coumaroylquinic acid] | < 100 | 70.4 ± 5.86 |  | > 100 |
| O=c1c(O)c(-c2ccc(O)cc2)oc2cc(O)cc(O)c12 [Compound 30, kaempferol] |  |  | stronger inhibitory effects | > 100 |
| O=C(/C=C/c1ccc(O)c(O)c1)O[C@H]1[C@@H](O)C[C@](O)(C(=O)O)C[C@@H]1O [Compound 13, crypto-chlorogenic acid] | < 100 | 74.4 ± 6.53 |  | > 100 |
| COC(=O)[C@@]1(O)C[C@H](OC(=O)/C=C/c2ccc(O)cc2)[C@H](O)[C@@H](O)C1 [Compound 5, 3-O-(E)-p-coumaroylquinic acid methyl ester] | < 100 | 95.8 ± 7.18 |  | > 100 |
| O=C(O)/C=C/c1ccc(O)cc1 [Compound 1, (E)-p-coumaric acid] | > 100 |  |  | > 100 |
| O=C(/C=C/c1ccc(O)cc1)O[C@H]1C[C@](O)(C(=O)O)C[C@H](O)[C@H]1O [Compound 3, 3-O-(E)-p-coumaroylquinic acid] | < 100 | 78.5 ± 8.23 |  | > 100 |
| C[C@@H]1O[C@@H](OC[C@H]2O[C@@H](Oc3c(-c4ccc(O)c(O)c4)oc4cc(O)cc(O)c4c3=O)[C@H](O[C@@H]3O[C@@H](C)[C@H](O)[C@@H](O)[C@H]3O)[C@@H](O)[C@H]2O)[C@H](O)[C@H](O)[C@H]1O [Compound 23, quercetin-3-O-α-L-rhamnopyranosyl-(1→2)-[α-L-rhamnopyranosyl-(1→6)-β-D-galactpyranoside]] | > 100 |  |  | > 100 |
| O=C(/C=C/c1ccc(O)cc1)O[C@H]1[C@@H](O)C[C@](O)(C(=O)O)C[C@@H]1O [Compound 9, 4-O-(E)-p-coumaroylquinic acid] | > 100 |  |  | > 100 |
| COc1cc(-c2oc3cc(O)cc(O)c3c(=O)c2O[C@@H]2O[C@H](CO[C@@H]3O[C@@H](C)[C@H](O)[C@@H](O)[C@H]3O)[C@H](O)[C@H](O)[C@H]2O[C@@H]2O[C@@H](C)[C@H](O)[C@@H](O)[C@H]2O)ccc1O [Compound 28, isorhamnetin-3-O-α-L-rhamnopyranosyl-(1→2)-[α-L-rhamnopyranosyl-(1→6)-β-D-galactopyranoside]] | < 100 | 90.7 ± 10.4 |  | > 100 |
| O=C(C=Cc1ccc(O)cc1)OC1CC2(O)CC(OC2=O)C1O (stereo not drawn) [Compound 7, 3-O-(E)-p-coumaroylquinide] |  | 94.6 ± 5.62 |  | > 100 |
| C[C@@H]1O[C@@H](OC[C@H]2O[C@@H](Oc3c(-c4ccc(O)c(O)c4)oc4cc(O)cc(O)c4c3=O)[C@H](O[C@@H]3O[C@@H](C)[C@H](O)[C@@H](O)[C@H]3O)[C@@H](O)[C@@H]2O)[C@H](O)[C@H](O)[C@H]1O [Compound 22, quercetin-3-O-α-L-rhamnopyranosyl-(1→2)-[α-L-rhamnopyranosyl-(1→6)-β-D-glucopyranoside]] | > 100 |  |  | > 100 |
| COc1cc(-c2oc3cc(O)cc(O)c3c(=O)c2O)ccc1O [Compound 24, isorhamnetin] |  |  | stronger inhibitory effects | > 100 |

More lines, main results first:

| IC50 [1, 3] [µM] | IC50 ([1]; LPS-induced BV2 cells) [µM] | SMILES | inhibitory effects on NO production in comparison with the positive drug indomethacin ([1]; LPS-induced BV2 cells) | IC50 [2] [µM] |
| --- | --- | --- | --- | --- |
| > 100 |  | C[C@@H]1O[C@@H](OC[C@H]2O[C@@H](Oc3c(-c4ccc(O)cc4)oc4cc(O)cc(O)c4c3=O)[C@H](O)[C@@H](O)[C@@H]2O)[C@H](O)[C@H](O)[C@H]1O [Compound 35, kaempferol-3-O-α-L-rhamnopyranosyl-(1→6)-β-D-glucopyranoside] |  | > 100 |
| > 100 |  | C[C@@H]1O[C@@H](OC[C@H]2O[C@@H](Oc3c(-c4ccc(O)c(O)c4)oc4cc(O)cc(O)c4c3=O)[C@H](O)[C@@H](O)[C@@H]2O)[C@H](O)[C@H](O)[C@H]1O [Compound 20, quercetin-3-O-rutinoside] |  | > 100 |
| > 100 |  | C[C@@H]1O[C@@H](OC[C@H]2O[C@@H](Oc3c(-c4ccc(O)c(O)c4)oc4cc(O)cc(O)c4c3=O)[C@H](O)[C@@H](O)[C@H]2O)[C@H](O)[C@H](O)[C@H]1O [Compound 21, quercetin-3-O-α-L-rhamnopyranosyl-(1→6)-β-D-galactpyranoside] |  | > 100 |
| > 100 |  | COc1cc(-c2oc3cc(O)cc(O)c3c(=O)c2O[C@@H]2O[C@H](CO[C@@H]3O[C@@H](C)[C@H](O)[C@@H](O)[C@H]3O)[C@@H](O)[C@H](O)[C@H]2O)ccc1O [Compound 27] |  | > 100 |
| > 100 |  | O=c1c(O[C@@H]2O[C@H](CO)[C@H](O)[C@H](O)[C@H]2O)c(-c2ccc(O)c(O)c2)oc2cc(O)cc(O)c12 [Compound 18, quercetin-3-O-β-D-galactpyranoside] |  | > 100 |
| > 100 |  | O=c1c(O[C@@H]2O[C@H](CO)[C@H](O)[C@H](O)[C@H]2O)c(-c2ccc(O)cc2)oc2cc(O)cc(O)c12 [Compound 32, kaempferol-3-O-β-D-galactopyranoside] |  | > 100 |
| > 100 |  | C[C@@H]1O[C@@H](OC[C@H]2O[C@@H](Oc3c(-c4ccc(O)cc4)oc4cc(O)cc(O)c4c3=O)[C@H](O)[C@@H](O)[C@H]2O)[C@H](O)[C@H](O)[C@H]1O [Compound 34, kaempferol-3-O-α-L-rhamnopyranosyl-(1→6)-β-D-galactpyranoside] |  | > 100 |
| > 100 |  | COc1cc(-c2oc3cc(O)cc(O)c3c(=O)c2O[C@@H]2O[C@H](CO)[C@@H](O)[C@H](O)[C@H]2O)ccc1O [Compound 26, isorhamnetin-3-O-β-D-glucopyranoside] |  | > 100 |
